In US7195918B2 (priority 2003, dated 2007):

Assays:
A. succinogenes 130Z = assay: Antibiotic minimum inhibitory concentrations: growth of A. succinogenes 130Z in liquid medium A with antibiotics; type: cell-based, Actinobacillus succinogenes; conditions: 37° C.; for antibiotic concentration in whose presence no growth was detected / antibiotic concentration in whose presence A. succinogenes 130Z grew perfectly well / antibiotic concentration in whose presence very slow growth was observed: 7 days, OD660; for OD660 after 7 days culture: 5 μg/ml antibiotic
Procedure: Antibiotic minimum inhibitory concentrations. To determine the sensitivity of A. succinogenes 130Z to antibiotics, the growth of A. succinogenes 130Z was tested in medium A (liquid medium) containing a series of antibiotics commonly used in bacteriology. One ml of 130Z preculture was inoculated into 9 ml of medium A containing each antibiotic and incubated at 37° C. for 7 days. Cell growth was followed by measuring OD660.
Resistance of A. succinogenes to antibiotics. A. succinogenes 130Z grew perfectly well in the presence of 50 μg/ml kanamycin or 30 μg/ml streptomycin. […] No growth was detected in the presence of 10 μg/ml ampicillin, 1 μg/ml chloramphenicol, 5 μg/ml tetracycline, or 10 μg/ml erythromycin. A. succinogenes is sensitive to low concentrations of ampicillin, chloramphenicol, erythromycin, and tetracycline, so the corresponding resistance genes (i.e., Amp^R, Cm^R, Tet^R, and Ery^R) could be used as selection markers on plasmids used to transform A. succinogenes. We discovered that the Tn3 Amp^R gene carried by pGZRS-19 is naturally expressed in A. succinogenes.

[1] = system: A. succinogenes 130Z cells harboring pLGZ921 and pLGZ922; assay: Growth of plasmid-harboring A. succinogenes 130Z on TS-agar plates with tetracycline or chloramphenicol; type: cell-based, Actinobacillus succinogenes
Source text: Expression of Tet^R and Cm^R in A. succinogenes. We need several markers to conveniently engineer A. succinogenes. One can be used to label a gene deletion, while another one can be used to select for the maintenance of a recombinant gene on a plasmid replicon. To determine whether, once expressed, Cm^R and Tet^R could be used as selective markers in A. succinogenes, the Tn9 Cm^R and Tn10 Tet^R genes were cloned into pLGZ920 under control of the A. succinogenes pckA promoter, yielding plasmids pLGZ921 and pLGZ922, respectively. After electroporation, A. succinogenes 130Z cells harboring pLGZ921 and pLGZ922 were spread on TS-agar (30 g/l TS, 10 g/l glucose) plates containing variable amounts of tetracycline and chloramphenicol (FIG. 9). Strains […] plated on chloramphenicol plates and […] plated on tetracycline plates were used as the negative controls. […] In contrast, strain […] grew on plates containing up to 5.0 μg/ml tetracycline. Chloramphenicol-sensitive 130Z(pLGZ921) strain grew on plates containing up to 0.4 μg/ml […], but not on plates containing higher chloramphenicol concentrations. Strain […] grew on plates containing up to 5.0 μg/ml chloramphenicol.

Row | SMILES | antibiotic concentration in whose presence no growth was detected (A. succinogenes 130Z) [µg/mL] | antibiotic concentration in whose presence A. succinogenes 130Z grew perfectly well (A. succinogenes 130Z) [µg/mL] | OD660 after 7 days culture (A. succinogenes 130Z) | antibiotic concentration in whose presence very slow growth was observed (A. succinogenes 130Z) [µg/mL] | antibiotic concentration up to which strain 130Z(pLGZ922) grew on plates [1]
1 | O=C(N[C@H](CO)[C@H](O)c1ccc([N+](=O)[O-])cc1)C(Cl)Cl [chloramphenicol] | 1 |  |  |  | 
2 | NC[C@H]1O[C@H](O[C@H]2[C@H](O)[C@@H](O[C@H]3O[C@H](CO)[C@@H](O)[C@H](N)[C@H]3O)[C@H](N)C[C@@H]2N)[C@H](O)[C@@H](O)[C@@H]1O [kanamycin] |  | 50 |  |  | 
3 | CC1(C)S[C@@H]2[C@H](NC(=O)[C@H](N)c3ccccc3)C(=O)N2[C@H]1C(=O)O [ampicillin] | 10 |  | approximately 0.05 | 5 | 
4 | CC[C@H]1OC(=O)[C@H](C)[C@@H](O[C@H]2C[C@@](C)(OC)[C@@H](O)[C@H](C)O2)[C@H](C)[C@@H](O[C@@H]2O[C@H](C)C[C@H](N(C)C)[C@H]2O)[C@](C)(O)C[C@@H](C)C(=O)[C@H](C)[C@@H](O)[C@]1(C)O [erythromycin] | 10 |  | approximately 0.05 | 5 | 
5 | CN(C)[C@@H]1C(O)=C(C(N)=O)C(=O)[C@@]2(O)C(O)=C3C(=O)c4c(O)cccc4[C@@](C)(O)[C@H]3C[C@@H]12 [tetracycline] | 5 |  |  |  | up to 1.0 μg/ml
6 | [H]/N=C(/N)N[C@H]1[C@H](O)[C@@H](O)[C@H](O[C@@H]2O[C@@H](C)[C@](O)(C=O)[C@H]2O[C@@H]2O[C@@H](CO)[C@H](O)[C@@H](O)[C@@H]2NC)[C@@H](N/C(N)=N\[H])[C@@H]1O [streptomycin] |  | 30 |  |  | 
